Data taken from ChEMBL document CHEMBL6092152, “Overview of PRMT1 modulators: Inhibitors and degraders” (Eur J Med Chem, 2024).
One block for each molecule: values may come before it. *1 amine or outer side, *2 acyl side, *3 side chain or, on linkers, in order; H or OH if unused. Where a SMILES comes first, the peptide text is derived from it. [ ]: non-standard residue; d: D form. X2 = N=C(NCCC[C@H](N[*:1])C(=O)[*:2])NCCC[C@H]1O[C@@H](n2cnc3c(N)ncnc32)[C@H](O)[C@@H]1O; Gly(N-(CH2)3-guanidino) = N=C(N)NCCCNCC(=O)O; X1 = N=C(CCl)NCCCN(CC(=O)[*:2])[*:1]; Gly(N-CH2CH2OH) = O=C(O)CNCCO; Nleu = CC(C)CNCC(=O)O; Nlys = NCCCCNCC(=O)O; Sar = CNCC(=O)O

What was measured:
[1] = target: T1, Protein arginine N-methyltransferase 1 (Homo sapiens, UniProt Q99873); assay: Inhibition of 6His-tagged PRMT1 (11 to 353 residues) (unknown origin) extracted from Escherichia coli BL21 (DE3) cells
[2] = target: T1, Protein arginine N-methyltransferase 1; assay: Inhibition of PRMT1 (unknown origin)
[3] = target: T2, Histone-arginine methyltransferase CARM1 (Homo sapiens, UniProt Q86X55); assay: Inhibition of PRMT4 (unknown origin)
T2 sequence (Q86X55 whole entry): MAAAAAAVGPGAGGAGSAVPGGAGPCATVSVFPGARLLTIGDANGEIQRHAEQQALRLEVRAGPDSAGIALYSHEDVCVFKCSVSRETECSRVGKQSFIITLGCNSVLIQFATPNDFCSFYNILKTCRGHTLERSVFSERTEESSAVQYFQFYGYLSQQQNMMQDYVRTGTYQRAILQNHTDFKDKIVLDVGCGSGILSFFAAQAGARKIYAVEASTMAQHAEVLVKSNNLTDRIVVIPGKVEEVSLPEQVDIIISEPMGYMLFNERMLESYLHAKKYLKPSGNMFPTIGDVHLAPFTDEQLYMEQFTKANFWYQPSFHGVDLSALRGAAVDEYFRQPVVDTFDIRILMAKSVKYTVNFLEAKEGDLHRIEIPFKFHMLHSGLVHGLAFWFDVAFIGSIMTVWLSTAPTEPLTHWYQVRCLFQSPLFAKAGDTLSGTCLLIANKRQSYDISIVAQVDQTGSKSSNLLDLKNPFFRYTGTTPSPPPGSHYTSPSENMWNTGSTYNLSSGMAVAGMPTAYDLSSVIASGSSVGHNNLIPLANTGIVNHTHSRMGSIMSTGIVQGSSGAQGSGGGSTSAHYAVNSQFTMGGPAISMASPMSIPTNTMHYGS

[4] = target: Protein arginine N-methyltransferase 5 (Homo sapiens, UniProt O14744); assay: Inhibition of PRMT5 (unknown origin)
[5] = target: T3, Protein arginine N-methyltransferase 7 (Homo sapiens, UniProt Q9NVM4); assay: Inhibition of PRMT7 (unknown origin)
T3 sequence (Q9NVM4 whole entry): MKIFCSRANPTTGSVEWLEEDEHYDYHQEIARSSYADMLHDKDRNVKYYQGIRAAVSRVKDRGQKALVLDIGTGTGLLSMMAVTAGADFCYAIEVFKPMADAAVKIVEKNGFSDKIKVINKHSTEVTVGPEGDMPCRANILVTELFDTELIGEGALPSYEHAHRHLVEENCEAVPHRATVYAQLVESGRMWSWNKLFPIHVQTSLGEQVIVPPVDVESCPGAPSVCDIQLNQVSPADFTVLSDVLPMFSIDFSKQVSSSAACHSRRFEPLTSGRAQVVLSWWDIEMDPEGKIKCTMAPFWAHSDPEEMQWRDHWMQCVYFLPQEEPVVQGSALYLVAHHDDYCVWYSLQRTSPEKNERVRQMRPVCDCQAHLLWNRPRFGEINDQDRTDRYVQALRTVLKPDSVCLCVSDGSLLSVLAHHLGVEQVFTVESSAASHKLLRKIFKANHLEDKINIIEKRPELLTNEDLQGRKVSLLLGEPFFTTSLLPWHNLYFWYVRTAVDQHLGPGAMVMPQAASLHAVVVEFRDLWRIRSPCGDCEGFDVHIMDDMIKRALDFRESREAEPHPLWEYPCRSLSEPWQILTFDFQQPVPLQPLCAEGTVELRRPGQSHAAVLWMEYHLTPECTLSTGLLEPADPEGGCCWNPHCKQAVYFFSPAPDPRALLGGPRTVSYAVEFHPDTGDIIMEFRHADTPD

[6] = target: T1, Protein arginine N-methyltransferase 1; assay: Inhibition of His-tagged PRMT1 (unknown origin) extracted from Escherichia coli BL21 (DE3) cells
[7] = target: Protein arginine N-methyltransferase 6 (Homo sapiens, UniProt Q96LA8); assay: Inhibition of PRMT6 (unknown origin)
[8] = target: T1, Protein arginine N-methyltransferase 1; assay: Inhibition of human PRMT1 assessed as methyltransferase activity using Histone H4 /H4 (1-15)-Biotin as substrate
MDA-MB-468 = assay: Cytotoxicity against human MDA-MB-468 cells assessed as reduction in cell viability incubated for 72 hrs by cell-titer blue assay; type: functional, cell-based; conditions: MDA-MB-468, 72 h
HCT-116 = assay: Cytotoxicity against human HCT-116 cells assessed as reduction in cell viability; type: functional, cell-based

T1 sequence (Q99873 whole entry, the tested form may be a part): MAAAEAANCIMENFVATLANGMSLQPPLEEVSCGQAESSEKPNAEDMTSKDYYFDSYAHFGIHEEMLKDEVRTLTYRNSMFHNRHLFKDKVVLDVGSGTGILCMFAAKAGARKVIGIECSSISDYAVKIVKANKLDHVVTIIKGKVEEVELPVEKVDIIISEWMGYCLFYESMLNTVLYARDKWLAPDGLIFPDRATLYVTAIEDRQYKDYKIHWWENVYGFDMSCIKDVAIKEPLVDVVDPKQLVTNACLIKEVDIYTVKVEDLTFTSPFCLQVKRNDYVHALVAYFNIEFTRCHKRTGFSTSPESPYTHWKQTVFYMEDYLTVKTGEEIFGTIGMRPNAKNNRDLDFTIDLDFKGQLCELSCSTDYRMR
Chain of Protein arginine N-methyltransferase 5 (O14744 whole entry): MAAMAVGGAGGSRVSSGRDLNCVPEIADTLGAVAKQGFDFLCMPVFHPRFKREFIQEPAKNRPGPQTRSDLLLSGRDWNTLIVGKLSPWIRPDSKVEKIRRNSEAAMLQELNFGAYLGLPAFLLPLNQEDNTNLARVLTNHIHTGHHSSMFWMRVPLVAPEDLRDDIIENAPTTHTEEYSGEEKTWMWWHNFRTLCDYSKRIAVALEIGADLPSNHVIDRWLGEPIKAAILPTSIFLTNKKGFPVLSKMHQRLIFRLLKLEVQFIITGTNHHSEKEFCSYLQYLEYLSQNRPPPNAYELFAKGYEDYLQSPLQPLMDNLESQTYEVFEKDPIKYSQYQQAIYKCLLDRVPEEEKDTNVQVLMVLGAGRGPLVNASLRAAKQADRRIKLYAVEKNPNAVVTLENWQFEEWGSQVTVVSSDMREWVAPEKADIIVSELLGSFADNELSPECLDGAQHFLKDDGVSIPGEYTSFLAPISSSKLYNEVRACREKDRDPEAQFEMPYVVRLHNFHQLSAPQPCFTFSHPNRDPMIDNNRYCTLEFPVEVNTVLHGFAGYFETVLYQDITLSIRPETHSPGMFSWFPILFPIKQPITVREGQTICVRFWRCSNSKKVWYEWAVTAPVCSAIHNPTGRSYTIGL
Chain of Protein arginine N-methyltransferase 6 (Q96LA8 whole entry): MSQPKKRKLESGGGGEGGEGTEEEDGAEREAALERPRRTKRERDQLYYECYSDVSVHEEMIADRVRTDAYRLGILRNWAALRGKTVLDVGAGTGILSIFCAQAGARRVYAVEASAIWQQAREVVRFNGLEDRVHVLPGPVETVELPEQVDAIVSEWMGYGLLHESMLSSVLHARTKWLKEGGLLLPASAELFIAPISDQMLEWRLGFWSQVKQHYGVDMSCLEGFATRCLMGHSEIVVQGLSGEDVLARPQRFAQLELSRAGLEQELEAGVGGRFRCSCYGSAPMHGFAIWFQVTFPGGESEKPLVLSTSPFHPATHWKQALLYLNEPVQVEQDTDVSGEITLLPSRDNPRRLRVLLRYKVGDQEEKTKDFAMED

- IC50 [1]: 26.2 µM
SMILES: NS(=O)(=O)c1ccc(CCNC/C=C/c2ccccc2)cc1

- IC50 [2]: 5.9 µM
- IC50 [3]: 2.8 nM
- IC50 [4]: 0.4 nM
- IC50 [5]: 0.4 nM
SMILES: N=C(N)NCCC[C@H](NC(=O)CN)C(=O)N[C@@H](CCCNC(=N)NCCCSC[C@H]1O[C@@H](n2cnc3c(N)ncnc32)[C@H](O)[C@@H]1O)C(N)=O

- IC50 [6]: 270 nM
SMILES: O=C1Nc2cnc(Nc3ccc(N4CCC(O)CC4)cc3)nc2N2c3ccccc3C[C@@H]12

- IC50 [2]: 3 µM
SMILES: N=C(NCCCSC[C@H]1O[C@@H](n2cnc3c(N)ncnc32)[C@H](O)[C@@H]1O)NCCC[C@H](N)C(N)=O

- IC50 [2]: 5.36 µM
- IC50 [7]: 11 µM
SMILES: CC(=O)N[C@@H](CO)C(=O)NCC(=O)N[C@@H](CCCNC(=N)NCCC[C@H]1O[C@@H](n2cnc3c(N)ncnc32)[C@H](O)[C@@H]1O)C(=O)NCC(=O)N[C@@H](CCCCN)C(=O)NCC(=O)NCC(=O)N[C@@H](CCCCN)C(N)=O (Ac-SG[X2]GKGGK-NH2)

- IC50 [8]: 8.73 µM
SMILES: CC(=O)N(CCO)CC(=O)NCC(=O)N(CCCNC(=N)CCl)CC(=O)NCC(=O)N(CCCCN)CC(=O)NCC(=O)NCC(=O)N(CCCCN)CC(=O)NCC(=O)N(CC(=O)NCC(=O)N(CCCCN)CC(=O)NCC(=O)NCC(=O)N(C)CC(=O)N(CCCCN)CC(N)=O)CC(C)C (Ac-[Gly(N-CH2CH2OH)]G[X1]G[Nlys]GG[Nlys]G[Nleu]G[Nlys]GG[Sar][Nlys]-NH2)
- IC50 (MDA-MB-468): > 500 µM
- IC50 (HCT-116): > 500 µM

- IC50 [2]: 396 µM
SMILES: CC(C)CN(CC(=O)NCC(=O)N(CCCCN)CC(=O)NCC(=O)NCC(=O)N(C)CC(=O)N(CCCCN)CC(N)=O)C(=O)CNC(=O)CN(CCCCN)C(=O)CNC(=O)CNC(=O)CN(CCCCN)C(=O)CNC(=O)CN(CCCNC(=N)N)C(=O)CNC(=O)CNCCO (H-[Gly(N-CH2CH2OH)]G[Gly(N-(CH2)3-guanidino)]G[Nlys]GG[Nlys]G[Nleu]G[Nlys]GG[Sar][Nlys]-NH2)

SMILES: CC(C)CN(CC(=O)NCC(=O)N(CCCCN)CC(=O)NCC(=O)NCC(=O)N(C)CC(=O)N(CCCCN)CC(N)=O)C(=O)CNC(=O)CN(CCCCN)C(=O)CNC(=O)CNC(=O)CN(CCCCN)C(=O)CNC(=O)CN(CCCNC(=N)CCl)C(=O)CNC(=O)CNCCO (H-[Gly(N-CH2CH2OH)]G[X1]G[Nlys]GG[Nlys]G[Nleu]G[Nlys]GG[Sar][Nlys]-NH2)
- IC50 (MDA-MB-468): > 500 µM
- IC50 (HCT-116): > 500 µM
